Assay results as given in patent US20210230178A1, “TRIOXACARCIN ANALOGS AND DIMERS AS POTENT ANTICANCER AGENTS” (William Marsh Rice University, priority 2017, published 2021).

Columns and labels:
Assay in all cases: cells
[1] = tested on: MES SA (human uterine sarcoma); conditions: 72 h, read-out: IC50 MES SA
[2] = tested on: MES SA DX (human uterine sarcoma cell line with marked multidrug resistance); conditions: 72 h, read-out: IC50 MES SA DX
[3] = tested on: HEK 293T (human embryonic kidney cancer cell line); conditions: 72 h, read-out: IC50 HEK 293T

IC50 [1] [nM]	IC50 [2] [nM]	Structure (SMILES)	IC50 [3] [nM]
3.88	2.18	COCO[C@@]12Oc3c(c(C)cc4c(OC)c5c(c(O)c34)C(=O)CCC5)[C@H]3O[C@](C4OCCO4)(O[C@@H]31)[C@]21CO1 [Trx10, (1S,2S,3aS,4R,13aS)-2-(1,3-Dioxolan-2-yl)-12-hydroxy-7-methoxy-13a-(methoxymethoxy)-5-methyl-3a,4,8,9,10,13a-hexahydro-11H-spiro[2,4-epoxyfuro[3,2-b]naphtho[2,3-h]chromene-1,2′-oxiran]-11-one]	1.51
3.72	5.72	COc1c2c(c(O)c3c4c(c(C)cc13)C1OC3(C5OCCCO5)OC1[C@@](O)(O4)[C@@]31CO1)C(=O)CCC2 (stereo partly drawn) [Trx12]	2.46
6.11	17.4	COc1c2c(c(O)c3c4c(c(C)cc13)C1OC3(C5OCCCO5)OC1[C@@](OC(C)=O)(O4)[C@@]31CO1)C(=O)CCC2 (stereo partly drawn) [Trx14]	6.89
4.91	3.48	C=CCO[C@@]12Oc3c(c(C)cc4c(OC)c5c(c(O)c34)C(=O)CCC5)[C@H]3O[C@](C4OCCCO4)(O[C@@H]31)[C@]21CO1 [Trx17, (1S,2S,3aS,4R,13aR)-13a-(Allyloxy)-2-(1,3-dioxan-2-yl)-12-hydroxy-7-methoxy-5-methyl-3a,4,8,9,10,13a-hexahydro-11H-spiro[2,4-epoxyfuro[3,2-b]naphtho[2,3-h]chromene-1,2′-oxiran]-11-one]	2.77
11.1	11.9	CC(=O)Oc1cccc2c1C(=O)c1c(cc(C)c3c1O[C@]1(OC(C)=O)[C@H]4O[C@@](C5OCCCO5)(O[C@H]34)[C@]13CO3)C2=O [Trx28, (1S,2S,3aS,4R,13aS)-2-(1,3-Dioxan-2-yl)-5-methyl-7,12-dioxo-3a,4,7,12-tetrahydro-13aH-spiro[2,4-epoxyfuro[3,2-b]naphtho[2,3-h]chromene-1,2′-oxirane]-11,13a-diyl diacetate]	11.2
1.44	1.05	CO[C@@]12Oc3c4c(cc(C)c3[C@H]3O[C@](C5OCCCO5)(O[C@@H]31)[C@]21CO1)C(=O)c1cccc(OC(C)=O)c1C4=O [Trx29, (1S,2S,3aS,4R,13aR)-2-(1,3-Dioxan-2-yl)-13a-methoxy-5-methyl-7,12-dioxo-3a,7,12,13a-tetrahydro-4H-spiro[2,4-epoxyfuro[3,2-b]naphtho[2,3-h]chromene-1,2′-oxiran]-11-yl acetate]	1.87
42	37.8	Cc1cc2c(c3c1[C@H]1O[C@]4(C5OCCCO5)O[C@@H]1[C@@](O)(O3)[C@@]41CO1)C(=O)c1c(O)cccc1C2=O [Trx30, (1S,2S,3aS,4R,13aR)-2-(1,3-Dioxan-2-yl)-11,13a-dihydroxy-5-methyl-3a,13a-dihydro-4H-spiro[2,4-epoxyfuro[3,2-b]naphtho[2,3-h]chromene-1,2′-oxirane]-7,12-dione]	50.5
1.09	0.65	CO[C@@]12Oc3c4c(cc(C)c3[C@H]3O[C@](C5OCCCO5)(O[C@@H]31)[C@]21CO1)C(=O)c1cccc(O)c1C4=O [Trx31, (1S,2S,3aS,4R,13aR)-2-(1,3-Dioxan-2-yl)-11-hydroxy-13a-methoxy-5-methyl-3a,13a-dihydro-4H-spiro[2,4-epoxyfuro[3,2-b]naphtho[2,3-h]chromene-1,2′-oxirane]-7,12-dione]	1.44
5.96	4.41	CC(=O)Oc1c(Cl)ccc2c1C(=O)c1c(cc(C)c3c1O[C@]1(OC(C)=O)[C@H]4O[C@@](C5OCCCO5)(O[C@H]34)[C@]13CO3)C2=O [Trx32, (1S,2S,3aS,4R,13aS)-10-Chloro-2-(1,3-dioxan-2-yl)-5-methyl-7,12-dioxo-3a,4,7,12-tetrahydro-13aH-spiro[2,4-epoxyfuro[3,2-b]naphtho[2,3-h]chromene-1,2′-oxirane]-11,13a-diyl diacetate]	6.73

Continued, compound first:

Structure (SMILES)	IC50 [1] [nM]	IC50 [2] [nM]	IC50 [3] [nM]
COc1c2c(c(O)c3c4c(c(C)cc13)[C@H]1O[C@]3(C5OCCO5)O[C@@H]1[C@@](O)(O4)[C@@]31CO1)C(=O)CCC2 [Trx8, (1S,2S,3aS,4R,13aR)-2-(1,3-Dioxolan-2-yl)-12,13a-dihydroxy-7-methoxy-5-methyl-3a,4,8,9,10,13a-hexahydro-11H-spiro[2,4-epoxyfuro[3,2-b]naphtho[2,3-h]chromene-1,2′-oxiran]-11-one]	51.9	49.3	30.7
COc1c2c(c(O)c3c4c(c(C)cc13)[C@H]1O[C@]3(C5OCCO5)O[C@@H]1[C@](OC)(O4)[C@@]31CO1)C(=O)CCC2 [Trx9, (1S,2S,3aS,4R,13aS)-2-(1,3-Dioxolan-2-yl)-12-hydroxy-7,13a-dimethoxy-5-methyl-3a,4,8,9,10,13a-hexahydro-11H-spiro[2,4-epoxyfuro[3,2-b]naphtho[2,3-h]chromene-1,2′-oxiran]-11-one]	4.67	2.63	2.04
C=CCOC(=O)N(C(C)C)[C@H]1CO[C@@H](O[C@@]23Oc4c(c(C)cc5c(OC)c6c(c(O)c45)C(=O)CCC6)C4OC(C5OCCCO5)(OC42)[C@]32CO2)C[C@@H]1OC (stereo partly drawn) [Trx18, (1S,13aS)-2-(1,3-Dioxan-2-yl)-12-hydroxy-7-methoxy-5-methyl-11-oxo-3a,4,8,9,10,11-hexahydro-13aH-spiro[2,4-epoxyfuro[3,2-b]naphtho[2,3-h]chromene-1,2′-oxiran]-13a-yl 4-{[(allyloxy)carbonyl](isopropyl)amino}-2,4-dideoxy-3-O-methyl-α-L-threo-pentopyranoside]	> 1000	> 1000	40.2
COc1c2c(c(O)c3c4c(c(C)cc13)C1O[C@@]3(C5OCCCO5)OC1C(O[C@H]1C[C@H](OC)[C@@H](NC(C)C)CO1)(O4)[C@@]31CO1)C(=O)CCC2 (stereo partly drawn) [Trx19, (1S,2R)-2-(1,3-dioxan-2-yl)-12-hydroxy-7-methoxy-5-methyl-11-oxo-3a,4,8,9,10,11-hexahydro-13aH-spiro[2,4-epoxyfuro[3,2-b]naphtho[2,3-h]chromene-1,2′-oxiran]-13a-yl 2,4-dideoxy-4-(iso-propylamino)-3-O-methyl-α-L-threo-pentopyranoside]	0.96	70.7	0.77
COc1c2c(c(O)c3c4c(c(C)cc13)C1O[C@@]3(C5OCCCO5)OC1[C@@](O[C@H]1C[C@H](OC(C)=O)[C@@](O)(C(C)=O)[C@H](C)O1)(O4)[C@@]31CO1)C(=O)CCC2 (stereo partly drawn) [Trx20, (1S,2R,13aS)-2-(1,3-dioxan-2-yl)-12-hydroxy-7-methoxy-5-methyl-11-oxo-3a,4,8,9,10,11-hexahydro-13aH-spiro[2,4-epoxyfuro[3,2-b]naphtho[2,3-h]chromene-1,2′-oxiran]-13a-yl 4-C-acetyl-3-O-acetyl-2,6-dideoxy-α-L-lyxo-hexopyranoside]	5.14	52.4	4.31
COc1c2c(c(O)c3c4c(c(C)cc13)C1O[C@@]3(C5OCCCO5)OC1[C@@](O[C@H]1C[C@H](O)[C@@](O)([C@@H](C)O)[C@H](C)O1)(O4)[C@@]31CO1)C(=O)CCC2 (stereo partly drawn) [Trx23, (1S,2R,13aS)-2-(1,3-dioxan-2-yl)-12-hydroxy-7-methoxy-5-methyl-11-oxo-3a,4,8,9,10,11-hexahydro-13aH-spiro[2,4-epoxyfuro[3,2-b]naphtho[2,3-h]chromene-1,2′-oxiran]-13a-yl 2,6-dideoxy-4-C-[(1R)-1-hydroxyethyl]-α-L-lyxo-hexopyranoside]	5.85	33.7	2.74
